Results as given in patent US20230125425A1, “TRADITIONAL CHINESE MEDICINE EXTRACT COMPOSITION WITH FUNCTION OF REGULATING DEPRESSIVE EMOTION AND PREPARATION METHOD AND TRADITIONAL CHINESE MEDICINE PREPARATION THEREOF” (CHENLAND NUTRITIONALS, INC., priority 2019, published 2023).
Where a name gives a salt, the structure may show the parent alone.

Key:
Format in all cases: in vivo
[1] = system: C57BL/6J mice; experiment: Forced swimming test of mice; settings: gavage daily for one month, 3.33 mg/kg, x ± SE, hydrochloride
Experimental: (§1) The mice were kept in a light, temperature and humidity controlled room with 6 mice per cage, and were allowed to eat and drink ad libitum: temperature 21±2° C. humidity 50±10%, 12 h/12 h light and dark cycle (light on at 20:00, light off at 8:00). All animal experiments were conducted in accordance with the guidelines on experiment animal welfare and use issued by NIH.
(§2) The mice were adapted for one week after their arrival, and then entered the experiment.
(§3) The normal group was given the same volume of purified water by gavage, and the gavage doses of other groups are shown in the table in the Experimental results. The mice were administrated by gavage at a fixed time (9:00) every morning, with a gavage volume of 0.1 mL·10g^−1, for one month. The behavioral test was performed 1 h after the last gavage.
During forced swimming, all animals were put into a plexiglass cylinder containing water with a deep of 20 cm at 23±1° C., individually. After 15 minutes, they were transferred to a dry environment at 30° C. for 30 minutes (pre-experiment). After 24 hours, the mice were put into the plexiglass cylinder again for 5 minutes (formal experiment). During this period, the mice were recorded with a video camera. After each mouse was tested, the water was changed and the cylinder was cleaned. SMART3.0 software was used to record the number of static suspension and the latency of static suspension.

[2] = system: C57BL/6J mice; experiment: Tail suspension test of mice; settings: gavage daily for one month, 3.33 mg/kg, last 4 min of 6 min, x ± SE, hydrochloride
Experimental: as §1, §2, §3
In the tail suspension test, mice were hung on the tail suspension device using medical tape at a position ⅓ from the tip of the tail, in an upright position with the head being about 30 cm from the ground and facing straight onto a camera, which was used to record the immobility time during the tail suspension test of the mice in each group. The test lasted for 6 minutes, and the last 4 minutes were used to calculate the immobility time during the tail suspension test of mice. Immobility time is defined as the time when the mouse stops struggling and is still in a hanging state.

[3] = system: C57BL/6J mice; experiment: Open field test of mice; settings: open field 6 min, gavage one month, 3.33 mg/kg, x ± SE, hydrochloride
Experimental: as §1, §2, §3
The test was carried out in an open field box with a length of 50 cm, a width of 50 cm and a depth of 50 cm. The bottom surface of the open field box was equally divided into 9 squares, in which the middle area was the central area, and the remaining areas were the peripheral areas. The bottom and four sides of the open field box were all white. The test was carried out in a quiet and weak red light environment. At the beginning, the mice were placed in the center of the open field box to observe their activities within 6 minutes. The total movement distance, the movement distance in the central area and the number of standing upright of the mice were recorded.

Compound: CNCCC(Oc1ccc(C(F)(F)F)cc1)c1ccccc1 (stereo not drawn) [FXT, Fluoxetine hydrochloride]
- Number of static suspension [1]: 54.64 ± 2.704
- Number of static suspension ([1]; listed as fluoxetine): significantly less than that of the control group
- Immobility time during tail suspension [2]: 59.62 ± 6.270 s
- Immobility time during tail suspension ([2]; listed as fluoxetine): significantly less than that of the control group
- Number of standing uprights [3]: 29.20 ± 2.133
- Total movement distance [3]: 18435 ± 950.6
- Movement distance in the central area ([3]; listed as fluoxetine): no significant change
- Number of standing uprights ([3]; listed as fluoxetine): no significant change
- Total movement distance ([3]; listed as fluoxetine): no significant change
